In patent publication US12678418B2, “Compositions and methods for the treatment of threatened respiratory failure caused by coronavirus infection and disease” (ENCYT TECHNOLOGIES, INC., priority 2020, dated 2026):
pIC50: −log10 of the molar value. “Also recorded” adds a separate entry of the source. Like-named read-outs stand apart in the source and are kept apart here. Ends that are not written are not given here.

Legend:
Neu1 = details: live macrophage cell lines and primary bone marrow macrophage cells from wild-type mice, not from Neu1-deficient mice; cited from earlier work
Neu1 sialidase [1] = experiment: Sialidase activity in live RAW-blue macrophage cells, 4-MUNANA substrate (Example 1); assay type: cell-based, mouse; details: for inhibition of sialidase activity associated with S-protein: FIG. 2B; for inhibition of sialidase activity associated with S-protein / inhibition of sialidase activity associated with S-protein (UK variant): inhibitor 200 μg/mL, 0.318 mM 4-MUNANA; for inhibition of sialidase activity associated with S-protein (UK variant): FIG. 2C
[2] = tested on: SEAP gene inducible by NF-kB and AP-1 in RAW-Blue cells; experiment: SEAP reporter assay in RAW-Blue cells (Example 2); assay type: cell-based, mouse; details: for expression of SEAP (reflective of NF-kB expression): FIG. 3A-3D, various concentrations
Protocol: RAW-Blue™ cells (mouse macrophage reporter cell line, Invivogen, San Diego CA) derived from RAW 264.7 macrophages were grown in a culture medium under the selection of Zeocin™. The cells stably express a secreted embryonic alkaline phosphatase (SEAP) gene inducible by NF-kB and AP-1 transcription factors. Upon stimulation, RAW-Blue™ cells activate NF-kB and AP-1 leading to the secretion of SEAP, which is detectable and measurable using QUANTI-Blue™, a SEAP detection medium (Invivogen). Supernatants (20 uL) after 24 hr reaction from treated RawBlue cells is added to QuantiBlue reagent (180 uL), and the readout of color reaction was done after 6 hrs. QUANTI-Blue™ is a colorimetric enzyme assay developed to determine the activity of any alkaline phosphatase present in a biological sample (supernatants) and was prepared according to manufacturer's instructions. RAW-Blue™ cells are resistant to Zeocin™ and G418.
A cell suspension of 550,000 RAW-blue cells/mL in fresh growth medium was prepared, and 180 μL of cell suspension (~100,000 cells) was added to each well of a Falcon flat-bottom 96-well plate (Becton Dickinson). After different incubation times, indicated dosages of LPS, bradykinin, angiotensin 1-7, neuropeptide FF, and S-protein alone or together with indicated dose-dependent OP were added to each well. The plates were incubated at 37° C. in a 5% CO2 incubator for 18-24 h. 180 μL of QUANTI-Blue™ solution was added to each well of a flat-bottom 96-well plate, followed by 20 μL of supernatant from stimulated RAW-blue cells. The plate was incubated for 30 min to 3 h at 37° C. and the SEAP levels were determined using a spectrophotometer at 620-655 nm. Each experiment was performed in triplicate.

MMP1 = molecular target: T1, MMP1 (Homo sapiens, UniProt P03956); details: read-out: IC50 for MMP1; cited from earlier work
T1 sequence (P03956 100-469): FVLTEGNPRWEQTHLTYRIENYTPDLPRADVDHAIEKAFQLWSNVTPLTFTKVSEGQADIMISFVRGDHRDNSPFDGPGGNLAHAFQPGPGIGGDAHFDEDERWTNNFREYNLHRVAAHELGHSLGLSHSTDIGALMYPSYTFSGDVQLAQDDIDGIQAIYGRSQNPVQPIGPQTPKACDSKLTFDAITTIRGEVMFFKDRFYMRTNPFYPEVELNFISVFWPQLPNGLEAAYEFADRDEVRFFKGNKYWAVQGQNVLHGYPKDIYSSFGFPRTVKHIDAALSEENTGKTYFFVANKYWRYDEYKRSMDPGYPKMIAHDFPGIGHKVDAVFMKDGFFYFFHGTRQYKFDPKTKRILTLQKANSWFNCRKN

MMP3 = MMP3 (Homo sapiens, UniProt P08254); details: cited from earlier work
Chain of MMP3 (P08254 100-477, species assumed): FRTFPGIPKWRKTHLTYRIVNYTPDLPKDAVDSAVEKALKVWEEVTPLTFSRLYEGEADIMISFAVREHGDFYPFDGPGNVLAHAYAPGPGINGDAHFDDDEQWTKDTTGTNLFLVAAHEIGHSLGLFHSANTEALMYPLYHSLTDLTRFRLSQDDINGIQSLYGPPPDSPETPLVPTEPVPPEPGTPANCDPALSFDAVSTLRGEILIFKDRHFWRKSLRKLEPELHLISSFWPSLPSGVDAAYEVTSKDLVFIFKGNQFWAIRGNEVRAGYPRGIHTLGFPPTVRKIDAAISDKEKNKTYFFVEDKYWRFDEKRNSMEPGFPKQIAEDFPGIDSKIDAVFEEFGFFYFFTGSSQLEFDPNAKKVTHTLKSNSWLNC

MMP9 = MMP9 (Homo sapiens, UniProt P14780); details: cited from earlier work
Chain of MMP9 (P14780 94-707, species assumed): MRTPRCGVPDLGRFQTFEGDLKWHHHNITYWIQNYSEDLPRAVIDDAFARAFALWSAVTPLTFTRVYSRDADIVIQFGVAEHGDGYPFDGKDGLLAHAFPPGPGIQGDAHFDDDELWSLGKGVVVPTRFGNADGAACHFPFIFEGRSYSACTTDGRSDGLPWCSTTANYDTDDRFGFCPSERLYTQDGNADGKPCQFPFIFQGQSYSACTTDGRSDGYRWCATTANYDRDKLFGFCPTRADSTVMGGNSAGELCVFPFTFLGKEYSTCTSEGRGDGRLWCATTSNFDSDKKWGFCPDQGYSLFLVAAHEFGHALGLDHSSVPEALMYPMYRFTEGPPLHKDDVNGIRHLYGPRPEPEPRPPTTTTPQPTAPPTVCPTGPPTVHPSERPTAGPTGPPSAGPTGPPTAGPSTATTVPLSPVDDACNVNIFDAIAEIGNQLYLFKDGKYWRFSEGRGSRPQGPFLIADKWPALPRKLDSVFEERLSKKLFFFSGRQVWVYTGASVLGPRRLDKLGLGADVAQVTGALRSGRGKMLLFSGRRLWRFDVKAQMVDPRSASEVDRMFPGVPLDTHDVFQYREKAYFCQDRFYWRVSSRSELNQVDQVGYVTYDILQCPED

MMP7 = MMP7 (Homo sapiens, UniProt P09237); details: read-out: IC50 for MMP7; cited from earlier work
Chain of MMP7 (P09237 95-267, species assumed): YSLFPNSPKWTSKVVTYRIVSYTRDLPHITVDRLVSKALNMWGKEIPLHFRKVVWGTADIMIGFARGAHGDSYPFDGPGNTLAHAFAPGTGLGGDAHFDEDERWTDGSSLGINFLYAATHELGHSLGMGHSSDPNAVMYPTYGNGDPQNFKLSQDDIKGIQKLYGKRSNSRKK

[3] = molecular target: LPS induced sialidase activity in live BMA macrophage cells (Mus musculus, UniProt O35657); details: clopidogrel bisulfate 280 μM and 500 μM for 2 min, 5 μg/ml LPS, 400 μM OP
carboxylesterase = carboxylesterase (Homo sapiens, UniProt P23141); details: previously determined; cited from earlier work
Chain of carboxylesterase (P23141 18-567): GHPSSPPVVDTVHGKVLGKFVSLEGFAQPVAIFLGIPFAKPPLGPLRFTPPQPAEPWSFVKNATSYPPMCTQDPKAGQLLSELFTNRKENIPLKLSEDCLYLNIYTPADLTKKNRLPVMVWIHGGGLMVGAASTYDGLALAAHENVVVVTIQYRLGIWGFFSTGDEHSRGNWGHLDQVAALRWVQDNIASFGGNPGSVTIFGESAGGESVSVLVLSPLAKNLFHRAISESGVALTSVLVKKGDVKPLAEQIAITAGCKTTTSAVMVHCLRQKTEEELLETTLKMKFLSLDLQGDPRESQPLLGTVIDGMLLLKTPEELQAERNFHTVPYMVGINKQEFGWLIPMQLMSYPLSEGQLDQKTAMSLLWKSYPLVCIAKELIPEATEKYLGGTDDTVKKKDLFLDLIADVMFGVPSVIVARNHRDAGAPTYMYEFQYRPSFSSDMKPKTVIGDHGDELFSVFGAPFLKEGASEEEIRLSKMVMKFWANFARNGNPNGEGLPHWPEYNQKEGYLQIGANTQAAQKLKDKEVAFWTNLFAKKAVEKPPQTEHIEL

Neu1 sialidase [4] = molecular target: T2, Neu1 sialidase (Mus musculus, UniProt O35657); assay type: cell-based; details: for inhibition of lipopolysaccharide (LPS) induced sialidase activity: live BMC-2 macrophage cells, 1-2 mM, compared to LPS positive control; for inhibition of sialidase (Neu1) activity associated with TLR ligand treated live macrophage cells: cell surface of macrophage and dendritic cells
T2 construct: […]; endogenous in cells; host or cells: BMC-2 macrophage cells
Excerpt: Central to this process is that Neu1 and not Neu2,-3 and -4 forms a complex with TLR-2,-3 and -4 on the cell surface of naïve macrophage cells. […] Endotoxin LPS binding to TLR4 induces Neu1 with subsequent activation of NFκB and the production of nitric oxide and proinflammatory IL-6 and TNFα cytokines in primary and macrophage cell lines.

Neu1 sialidase [5] = molecular target: T2, Neu1 sialidase; details: cited from earlier work; for inhibition of the LPS-induced sialidase activity: live BMC-2 macrophage cells
neuraminidase 1 = molecular target: T3, neuraminidase 1 (Homo sapiens, UniProt Q99519); experiment: Neu-1 activity in live PANC-1 cells stimulated with EGF; assay type: cell-based; details: FIG. 5; aspirin 1.6 mM-6.4 mM, 30 ng/mL EGF, 0.318 mM 4-MUNANA
T3 construct: endogenous in cells; host or cells: PANC-1
Protocol: Live PANC-1 cells were pre-treated with increasing concentrations of aspirin (1.6 mM-6.4 mM), followed by stimulation with 30 ng/mL of EGF to initiate Neu-1 activity. 0.318 mM 4-MUNANA substrate was added to quantify Neu-1 activity.

[6] = molecular target: mammalian neuraminidase 1 (Homo sapiens, UniProt Q99519); experiment: Aspirin with OP on mammalian neuraminidase 1
[7] = tested on: NFκB activation, nitric oxide, IL-6 and TNFα in primary or macrophage cell lines; experiment: LPS/TLR ligand induced NFκB activation, nitric oxide and pro-inflammatory cytokines in macrophage cells; assay type: cell-based; details: macrophage and dendritic cells
Excerpt: Thus, there is evidence that the activation of Neu1 sialidase in complex with TLR-2,-3 and -4 receptors on the cell surface of macrophages is inhibited by the neuraminidase inhibitor OP. […] On the basis that Mas GPCR potentiates receptor biased-induced TLR transactivation via NMBR-Neu1-MMP9 crosstalk on the cell surface alveolar macrophages, then OP will inhibit the pro-inflammatory responses in the lungs and reduce the inflammatory process.

[8] = tested on: NFκB activation, nitric oxide, IL-6 and TNFα in primary or macrophage cell lines; details: cited from earlier work
[9] = cited from earlier work
human Neu3 sialidase = molecular target: T4, human Neu3 sialidase (Homo sapiens, UniProt Q9UQ49); details: micromolar range; cited from earlier work
T4 sequence (Q9UQ49 1-428): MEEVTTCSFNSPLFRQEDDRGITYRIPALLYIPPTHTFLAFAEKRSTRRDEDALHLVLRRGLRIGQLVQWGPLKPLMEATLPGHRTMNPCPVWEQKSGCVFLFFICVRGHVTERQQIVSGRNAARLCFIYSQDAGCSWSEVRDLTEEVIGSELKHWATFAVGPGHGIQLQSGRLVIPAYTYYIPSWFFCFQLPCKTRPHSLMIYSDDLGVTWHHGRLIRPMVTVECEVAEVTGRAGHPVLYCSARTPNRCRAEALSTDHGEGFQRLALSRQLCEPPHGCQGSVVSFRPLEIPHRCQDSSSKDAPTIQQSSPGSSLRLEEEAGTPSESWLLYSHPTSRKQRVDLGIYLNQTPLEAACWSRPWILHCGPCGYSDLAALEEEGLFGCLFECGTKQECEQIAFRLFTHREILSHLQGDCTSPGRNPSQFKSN

Neu1 sialidase [10] = details: 2 mM, lysates from mature dendritic cells; cited from earlier work
Neu3 sialidase = details: 2 mM, lysates from mature dendritic cells; cited from earlier work

For `CC(C)CCC[C@@H](C)[C@H]1CC[C@H]2[C@@H]3CC=C4C[C@@H](O)CC[C@]4(C)[C@H]3CC[C@]12C` [cholesterol], the “induction of Neu1 activity” value (Neu1) is listed as “induce Neu1 activity”.
For “angiotensin 1-7 (DRVYIHP; Angiotensin 1-7; UniProt P01019 25-31, looked up)”, the “induction of sialidase activity” value (Neu1 sialidase [1]; FIG. 2A, agonist 20 μg/mL) was “induces Sialidase activity” and the “expression of SEAP (reflective of NF-kB expression)” value [2] was “triggered increased expression of SEAP”.
For `C1CNCCN1` [PIPZ], the pIC50 (MMP1) is listed as 7.62, the pIC50 (MMP3) is listed as 7.74 and the pIC50 (MMP9) is listed as 8.57. For the same molecule, the pIC50 (MMP7) was 7.52.
In the case of `COC(=O)[C@H](c1ccccc1Cl)N1CCc2sccc2C1` [clopidogrel], the “effect on OP's capacity to inhibit LPS induced sialidase activity” value [3] is given as “no effect” and the “inhibition of the hydrolysis of OP by carboxylesterase” value (carboxylesterase) is given as ≤ 90%.
In the case of `CC(=O)N[C@H]1[C@H]([C@H](O)[C@H](O)CO)OC(C(=O)O)=C[C@@H]1O` [DANA, 2-deoxy-2,3-dehydro-N-acetylneuraminic acid], the “inhibition of lipopolysaccharide (LPS) induced sialidase activity” value (“inhibition of lipopolysaccharide” below) (Neu1 sialidase [4]) is given as “limited effect” and the “inhibition of the LPS-induced sialidase activity” value (Neu1 sialidase [5]) is given as “limited significant inhibition”.
In the case of `CNC(=O)[C@H](Cc1c[nH]c2ccccc12)NC(=O)[C@@H](CC(=O)NO)CC(C)C` [Galardin], the pIC50 (MMP3) is given as 7.57.
In the case of thrombin, the “induction of Neu1 activity” value (Neu1) is given as “not”.
In the case of lysophosphatidic acid, the “induction of Neu1 activity” value (Neu1) is given as “induce Neu1 activity”.
For “angiotensin-2: GPCR agonist, printed as 'angiotensin-1 and -2' (DRVYIHPF; Angiotensin-2; UniProt P01019 25-32, looked up)”, the “induction of Neu1 activity” value (Neu1) is given as “induce Neu1 activity”.
For `CC(=O)Oc1ccccc1C(=O)O` [aspirin], the “reduction in Neu-1 activity” value (neuraminidase 1) was “substantial reduction” and the “inhibition of mammalian neuraminidase 1 by aspirin together with OP” value [6] was “potentiates the ability of OP to inhibit mammalian neuraminidase 1”.
For `CCC(CC)[C@H](NC(C)=O)[C@@H]1C[C@@H](C(=O)O)C[C@H]1N=C(N)N` [BCX1827], the “inhibition of lipopolysaccharide” value (Neu1 sialidase [4]) is listed as “limited effect” and the “inhibition of the LPS-induced sialidase activity” value (Neu1 sialidase [5]) is listed as “limited significant inhibition”.
For `N[C@@H](CS)C(=O)N1CCn2cc(-c3ccccc3)nc2[C@@H]1CC1CCCCC1` [BIM-46174], the “inhibition of sialidase activity triggered by recombinant S protein and LPS” value (Neu1 sialidase [1]) was “inhibited”, the “inhibition of sialidase activity associated with S-protein” value (Neu1 sialidase [1]) was “inhibited” and the “inhibition of sialidase activity associated with S-protein (UK variant)” value (Neu1 sialidase [1]) was “inhibited”.
With “neuropeptide FF (FLFQPQRF; ends and bridges not checked; UniProt O15130 69-76, looked up) [MAS agonist]” the “expression of SEAP (reflective of NF-kB expression)” value [2] was “triggered increased expression of SEAP”.
For “angiotensin-1 (DRVYIHPFHL; Angiotensin-1; UniProt P01019 25-34, looked up) [GPCR agonist]”, the “induction of Neu1 activity” value (Neu1) is listed as “induce Neu1 activity”.
With `CCOC(=O)C1=C[C@@H](OC(CC)CC)[C@H](NC(C)=O)[C@@H](N)C1.O=P(O)(O)O` [OP, (3R,4R,5S)-4-acetylamino-5-amino-3-(1-ethylpropoxy)1-cyclohexene-1-carboxylic acid, ethyl ester, phosphate (1:1)] the “inhibition of sialidase (Neu1) activity associated with TLR ligand treated live macrophage cells” value (Neu1 sialidase [4]) was “most potent; also recorded: potent inhibitor”, the “inhibition of sialidase (Neu1) activity associated with TLR ligand treated live macrophage cells” value (Neu1 sialidase [4]; listed as oseltamivir phosphate) was “specifically inhibits” and the “block of TLR ligand induced NFkB activation, nitric oxide (NO) production and pro-inflammatory cytokines” value [7] was “blocks”. The “inhibition of sialidase activity triggered by recombinant S protein and LPS” value (Neu1 sialidase [1]) was “blocked”, the “inhibition of sialidase activity associated with S-protein” value (Neu1 sialidase [1]) was “inhibited” and the “inhibition of sialidase activity associated with S-protein (UK variant)” value (Neu1 sialidase [1]) was “inhibited”. The “inhibition of S-protein triggered activity by SEAP reporter assay” value ([2]; FIG. 4C, S-protein 10 ug/mL, OP at indicated concentrations) was “significantly decreased; also recorded: inhibited sialidase activity in a dose dependent manner”, the “OP blockage of LPS-induced Neu1 sialidase activity after clopidogrel pretreatment” value (Neu1 sialidase [5]; BMC-2 cells pretreated with anti-carboxylesterase agent clopidogrel) was “not affected” and the “inhibition of the LPS-induced sialidase activity” value (Neu1 sialidase [5]) was “completely blocks”. For the same molecule, the “inhibition of endotoxin LPS induced NFκB activation and production of nitric oxide and pro-inflammatory IL-6 and TNFα cytokines” value [8] was “significantly inhibited” and the solubility in water [9] was “soluble in water”.
In the case of `CC(=O)N[C@H]1[C@H]([C@H](O)[C@H](O)CO)OC(C(=O)O)=C[C@@H]1N=C(N)N` [zanamivir, 4-guanidino-Neu5Ac2en], the “inhibition of lipopolysaccharide” value (Neu1 sialidase [4]) is listed as “limited effect”, the “inhibition of the LPS-induced sialidase activity” value (Neu1 sialidase [5]) is listed as “limited significant inhibition” and the “inhibition of human Neu3 sialidase” value (human Neu3 sialidase) is listed as “significantly inhibited”. The “inhibition of Neu1 sialidase activity” value (Neu1 sialidase [10]) was “completely inhibited” and the “inhibition of Neu3 sialidase activity” value (Neu3 sialidase) was “completely inhibited”.
